Laboratory results taken from ChEMBL document CHEMBL1921781, “Antibacterial and antitubercular activity of fosmidomycin, FR900098, and their lipophilic analogs” (2011).
In brackets after ≈: the same amount, converted by molar mass.

Experiments:
Assay type in all cases: functional
Escherichia coli [1] = assay: Antibacterial activity against Escherichia coli expressing TolC after overnight incubation by microbroth dilution method
Acinetobacter = assay: Antibacterial activity against Acinetobacter after overnight incubation by microbroth dilution method
Escherichia coli [2] = assay: Antibacterial activity against Escherichia coli K-12 after overnight incubation by microbroth dilution method
Enterococcus faecalis = assay: Antibacterial activity against Enterococcus faecalis after overnight incubation by microbroth dilution method
Staphylococcus aureus [3] = assay: Antibacterial activity against methicillin-susceptible Staphylococcus aureus after overnight incubation by microbroth dilution method
[4] = test system: Mycobacterium tuberculosis; assay: Antitubercular activity against Mycobacterium tuberculosis H37Rv after 7 days by microbroth dilution method; conditions: 168 h
Bacillus anthracis = assay: Antibacterial activity against Bacillus anthracis after overnight incubation by microbroth dilution method
Staphylococcus aureus [5] = assay: Antibacterial activity against methicillin-resistant Staphylococcus aureus after overnight incubation by microbroth dilution method

CC(=O)N(O)CCCP(=O)(OC(C)OC(=O)OC(C)(C)C)OC(C)OC(=O)OC(C)(C)C (stereo not drawn)
MIC (Escherichia coli [1]): > 200 µg/mL
MIC (Acinetobacter): > 200 µg/mL
MIC (Escherichia coli [2]): > 200 µg/mL
MIC (Enterococcus faecalis): > 200 µg/mL
MIC (Staphylococcus aureus [3]): 100 µg/mL (≈ 206 µM)
MIC [4]: 400 µg/mL (≈ 824 µM)
MIC (Bacillus anthracis): 200 µg/mL (≈ 412 µM)
MIC (Staphylococcus aureus [5]): 50 µg/mL (≈ 103 µM)

CC(=O)N(O)CCCP(=O)(OC(C)OC(=O)c1ccccc1)OC(C)OC(=O)c1ccccc1 (stereo not drawn)
MIC (Escherichia coli [1]): 50 µg/mL (≈ 101 µM)
MIC (Acinetobacter): 100 µg/mL (≈ 203 µM)
MIC (Escherichia coli [2]): 50 µg/mL (≈ 101 µM)
MIC (Enterococcus faecalis): > 200 µg/mL
MIC (Staphylococcus aureus [3]): > 200 µg/mL
MIC [4]: 100 µg/mL (≈ 203 µM)
MIC (Bacillus anthracis): 50 µg/mL (≈ 101 µM)

CCOC(=O)OC(C)OP(=O)(CCCN(O)C(C)=O)OC(C)OC(=O)OCC (stereo not drawn)
MIC (Escherichia coli [1]): 200 µg/mL (≈ 466 µM)
MIC (Acinetobacter): > 200 µg/mL
MIC (Escherichia coli [2]): > 200 µg/mL
MIC (Enterococcus faecalis): > 200 µg/mL
MIC (Staphylococcus aureus [3]): > 200 µg/mL
MIC [4]: 400 µg/mL (≈ 932 µM)
MIC (Bacillus anthracis): > 200 µg/mL
MIC (Staphylococcus aureus [5]): > 200 µg/mL

CC(=O)N(O)CCCP(=O)(OCOC(=O)c1ccccc1)OCOC(=O)c1ccccc1
MIC (Escherichia coli [1]): 50 µg/mL (≈ 107 µM)
MIC (Acinetobacter): 200 µg/mL (≈ 430 µM)
MIC (Escherichia coli [2]): > 200 µg/mL
MIC (Enterococcus faecalis): > 200 µg/mL
MIC (Staphylococcus aureus [3]): > 200 µg/mL
MIC [4]: 25 µg/mL (≈ 53.7 µM)
MIC (Bacillus anthracis): 100 µg/mL (≈ 215 µM)
MIC (Staphylococcus aureus [5]): > 200 µg/mL

CC(=O)N(O)CCCP(=O)(OC(C)C)OC(C)C
MIC (Escherichia coli [1]): > 200 µg/mL
MIC (Acinetobacter): > 200 µg/mL
MIC (Escherichia coli [2]): > 200 µg/mL
MIC (Enterococcus faecalis): > 200 µg/mL
MIC (Staphylococcus aureus [3]): > 200 µg/mL
MIC [4]: 400 µg/mL (≈ 1420 µM)
MIC (Bacillus anthracis): > 200 µg/mL
MIC (Staphylococcus aureus [5]): > 200 µg/mL

O=CN(O)CCCP(=O)(O)O [FOSMIDOMYCIN]
MIC (Escherichia coli [1]): 6.25 µg/mL (≈ 34.1 µM)
MIC (Acinetobacter): 100 µg/mL (≈ 546 µM)
MIC (Escherichia coli [2]): 12.5 µg/mL (≈ 68.3 µM)
MIC (Enterococcus faecalis): > 200 µg/mL
MIC (Staphylococcus aureus [3]): > 200 µg/mL
MIC [4]: > 500 µg/mL
MIC (Bacillus anthracis): 0.78 µg/mL (≈ 4.26 µM)
MIC (Staphylococcus aureus [5]): 200 µg/mL (≈ 1090 µM)

CCOP(=O)(CCCN(O)C(C)=O)OCC
MIC (Escherichia coli [1]): > 200 µg/mL
MIC (Acinetobacter): > 200 µg/mL
MIC (Escherichia coli [2]): > 200 µg/mL
MIC (Enterococcus faecalis): > 200 µg/mL
MIC (Staphylococcus aureus [3]): > 200 µg/mL
MIC [4]: 200 µg/mL (≈ 790 µM)
MIC (Bacillus anthracis): 200 µg/mL (≈ 790 µM)
MIC (Staphylococcus aureus [5]): 200 µg/mL (≈ 790 µM)

CCOP(=O)(CCCN(O)C=O)OCC
MIC (Escherichia coli [1]): > 200 µg/mL
MIC (Acinetobacter): > 200 µg/mL
MIC (Escherichia coli [2]): > 200 µg/mL
MIC (Enterococcus faecalis): > 200 µg/mL
MIC (Staphylococcus aureus [3]): > 200 µg/mL
MIC [4]: 400 µg/mL (≈ 1670 µM)
MIC (Bacillus anthracis): > 200 µg/mL
MIC (Staphylococcus aureus [5]): > 200 µg/mL

CCCCCCOP(=O)(CCCN(O)C(C)=O)OCCCCCC
MIC [4]: 100 µg/mL (≈ 274 µM)

CC(=O)N(O)CCCP(=O)(OCC(=O)OC(C)(C)C)OCC(=O)OC(C)(C)C
MIC (Escherichia coli [1]): > 200 µg/mL
MIC (Acinetobacter): > 200 µg/mL
MIC (Escherichia coli [2]): > 200 µg/mL
MIC (Enterococcus faecalis): > 200 µg/mL
MIC (Staphylococcus aureus [3]): 100 µg/mL (≈ 235 µM)
MIC [4]: 400 µg/mL (≈ 940 µM)
MIC (Bacillus anthracis): > 200 µg/mL
MIC (Staphylococcus aureus [5]): 25 µg/mL (≈ 58.8 µM)

CC(=O)N(O)CCCP(=O)([O-])O.[Na+]
MIC (Escherichia coli [1]): 12.5 µg/mL
MIC (Acinetobacter): 50 µg/mL
MIC (Escherichia coli [2]): 200 µg/mL
MIC (Enterococcus faecalis): > 200 µg/mL
MIC (Staphylococcus aureus [3]): > 200 µg/mL
MIC [4]: > 500 µg/mL
MIC (Bacillus anthracis): 50 µg/mL
MIC (Staphylococcus aureus [5]): 50 µg/mL

CC(=O)N(O)CCCP(=O)(OCOC(=O)C(C)(C)C)OCOC(=O)C(C)(C)C
MIC (Escherichia coli [1]): 100 µg/mL (≈ 235 µM)
MIC (Acinetobacter): > 200 µg/mL
MIC (Escherichia coli [2]): > 200 µg/mL
MIC (Enterococcus faecalis): > 200 µg/mL
MIC (Staphylococcus aureus [3]): 100 µg/mL (≈ 235 µM)
MIC [4]: 50 µg/mL (≈ 118 µM)
MIC (Bacillus anthracis): 200 µg/mL (≈ 470 µM)
MIC (Staphylococcus aureus [5]): 50 µg/mL (≈ 118 µM)
